≈ marks a conversion by molar mass, not a printed value.
Tests used:
ECV-304 [1] = assay: Antiproliferative activity against human ECV304 cells; type: functional, cell-based
Caco-2 [2] = assay: Antiproliferative activity against human Caco-2 cells; type: functional, cell-based
A549 = assay: Antiproliferative activity against human A549 cells; type: functional, cell-based
Polar surface area = conditions: pH 7.4
[3] = Dissociation constant, pKa; conditions: pH 7.4
[4] = Solubility of the compound
Caco-2 [5] = assay: Ratio of IC50 drug to IC50 taspine against human Caco-2 cells; type: functional
ECV-304 [6] = assay: Ratio of IC50 drug to IC50 taspine against human ECV304 cells; type: functional
[7] = Ratio of solubility for drug to taspine; type: physicochemical

Structure (SMILES) | IC50 (A549) | PSA (Polar surface area) | pKa [3] | solubility [4] | IC50 (ECV-304 [1]) | IC50 (Caco-2 [2]) | Ratio IC50 (Caco-2 [5]) | Ratio IC50 (ECV-304 [6]) | Ratio [7]
COc1ccc2c(=O)oc3c(OC)cc(CCN(C)C)c4c(=O)oc1c2c34 [TASPINE] | 4.18 nM | 74.3 Å2 | 8.21 | 21 µg/mL (≈ 56.9 µM) | 22.3 nM | 153 nM | – | – | –
COC(=O)c1cc(OC(=O)c2ccc(OC)c(O)c2)c(OC)cc1CCN(C)C | 453 nM | 94.5 Å2 | 8.75 | 140 µg/mL (≈ 347 µM) | – | 11000 nM | – | – | 13

Further lines, with some results ahead:

IC50 (A549) | PSA (Polar surface area) | pKa [3] | solubility [4] | Structure (SMILES) | IC50 (ECV-304 [1]) | IC50 (Caco-2 [2]) | Ratio IC50 (Caco-2 [5]) | Ratio IC50 (ECV-304 [6]) | Ratio [7]
111 nM | 94.5 Å2 | 8.57 | 130 µg/mL (≈ 322 µM) | COC(=O)c1ccc(OC)c(OC(=O)c2cc(O)c(OC)cc2CCN(C)C)c1 | – | 3100 nM | – | – | –
180 nM | 103 Å2 | 3.65 | 61 µg/mL (≈ 121 µM) | COC(=O)c1cc(OC(=O)c2ccc(OC)c(O)c2)c(OC)cc1CCNc1ccc(F)c(Cl)c1 | 61 nM | – | – | – | –
158 nM | 104 Å2 | 7.28 | 270 µg/mL (≈ 606 µM) | COC(=O)c1cc(OC(=O)c2ccc(OC)c(O)c2)c(OC)cc1CCN1CCOCC1 | 2.67 nM | 52.5 nM | 3 | 10 | 13

From ChEMBL document CHEMBL1153246, “Discovery of novel taspine derivatives as antiangiogenic agents” (Bioorg Med Chem Lett, 2010)
